# “Also recorded” adds a separate entry of the source.
# Tests used:
# dogs [1] = test: Cardiovascular telemetry / ECG; format: in vivo; conditions: dog
# Method: The cardiovascular effects of orally administered AZD0328 were assessed dogs implanted with telemetry transmitters (Table 3). The main purpose of the study was to evaluate effects on the QT interval of the ECG during a 7-days dosing period followed by 5 days of recovery, thus enabling assessment of any accumulation of effects and the recovery back to baseline. Systolic, diastolic and mean arterial blood pressure, heart rate, lead II ECG and core body temperature were recorded continuously. The PR, QRS and QT intervals of the ECG were measured, and the QT interval was corrected for changes in heart rate using the method of Van de Water (QTcV).
# [2] = PK/TK multiple dose studies; format: in vivo; conditions: rabbit 2F, DMB15, subcutaneous 1.15 mg/kg (3 μmol/kg), day 18
# Excerpt: This section provides a summary of the pharmacokinetic and metabolism properties of AZD0328 derived from in vivo studies. […] The derived PK/TK parameters from these studies are presented in Table 4 for single dose studies (DMR4, 0619LR, 20030191PCR, DM016, DMB10, DMW12, 50190, 0190DD and 03.330/1), and are presented in Table 5 multiple dose PK/TK studies (DMR4, 0612AR, DMB15, 50190, 0190DD and 0295AD).
# Ames test = test: Ames test; format: cell-based
# Excerpt: (§1) The genotoxic potential of AZD0328 has been evaluated in the Ames test and in the Mouse lymphoma test. AZD0328 was not mutagenic in either of these tests.
# human hepatocytes = test: Hepatocyte incubations (metabolites); format: in vitro ADME; conditions: four separate batches of human hepatocytes
# Method: Pyridinyl methylation of AZD0328 was a unique polar metabolite (M2) observed in dog hepatocytes. Other minor hydroxylation/oxidation and glucuronide conjugation products were detected in monkey, dog, rat, and guinea pig hepatocyte incubations and mini-pig hepatic microsome incubations. […] Analysis of plasma and urine samples from either orally or iv dosed rats confirmed N-oxide product of AZD0328 was a main product in the excretion and circulation. The percentage of AZD0328 N-oxide in the plasma from male rats was much higher than from females.
# [3] = tested on: isolated perfused female rabbit hearts; test: Isolated perfused rabbit heart (Hondeghem model)
# Excerpt: Proarrhythmic properties of AZD0328 were investigated in 6 isolated perfused female rabbit hearts according to the Hondeghem model (Table 3). Effects of AZD0328 on action potential duration at 60% of repolarisation (APD60), and Triangulation, Reverse-use dependence and Instability (T, R, I) of the action potential, were studied. Also, a “flag” was raised when T, R or I reached a critical threshold level, below which is considered safe, and the total number of flags was presented as increase in percentage flags. The % flags parameter is considered to be the most sensitive measure of proarrhythmia in this in vitro model, with a threshold for cause of concern at 2.5%. The % flags increased concentration-dependently above threshold at 9 and 30 μM. Although TRIad elements were present, there were no overt signs of proarrhythmia such as early-afterdepolarisations (EADs), Torsade de Pointes, or ventricular fibrillation. In this study the no adverse effect level (NOAEL) of AZD0328 for proarrhythmic signals was 3 μm.
# Mouse lymphoma test = test: Mouse lymphoma test; format: cell-based
# Excerpt: as §1
# rats [4] = test: Nicotine drug discrimination; conditions: Wistar, rat, in vivo, sc
# Method: AZD0328 was tested for its potential to produce nicotine-like stimulus effects after subcutaneous administration in a drug-discrimination procedure (Table 3).
# [5] = Single oral dose PK in healthy human volunteers (Table A); format: in vivo
# Method: Total oral doses of AZD0328 in the range 0.025-0.68 mg produced mean plasma concentrations of 0.6-15 nM, consistent with the range of plasma concentrations found to be associated with improved performance in the spatial delayed response test in monkeys. Total oral doses of AZD0328 in the range 0.005-2 mg produced mean plasma concentrations of 0.17-43.9 nM, within the range of plasma concentrations found to be associated with improved performance in rodent models.
# [6] = Cardiovascular/respiratory telemetry and whole body plethysmography; format: in vivo, rat; conditions: plasma; rat, oral, whole-body plethysmography; read-out: NOAEL on ventilatory function / respiration, total Cmax
# Method: (§2) Effects of single oral doses of AZD0328 on mean, systolic and diastolic arterial blood pressures, heart rate, body temperature, locomotor activity and respiratory parameters were evaluated in rats by combining whole body plethysmography with telemetry (Table 3). […] The degree of hypertension, however, was similar at the 3 highest doses, which partly can be explained by the high individual variation in plasma exposure at each dose level. The effect on heart rate was, on the other hand, dose-related.
# (§3) Effects of AZD0328 on respiratory function were evaluated in the combined cardiovascular/respiratory study in rats (Table 3). Respiratory rate, tidal volume, inspiratory and expiratory times, and peak inspiratory and expiratory flows were measured […].
# rats [7] = test: as above; format: in vivo, rat
# Method: as §2, §3
# rats [8] = test: 1 month repeated-dose oral toxicity; format: in vivo; conditions: rat, one month, high dose 65 mg/kg/day (300 μmol/kg/day)
# Method: The objective of this investigation was to study the toxicity of AZD0328 given orally to rats for 1 month. Four groups of rats, each consisting of 10 males and 10 females, were given 0, 2.2, 15 and 65 mg/kg/day ([…]) of AZD0328.
# dogs [9] = test: Maximum tolerated dose and 7 days oral toxicity; format: in vivo; conditions: dog
# Method: Single doses of 4.5 to 17 mg/kg were administrated to test AZD0328 to 2 male and 2 female dogs. […] Signs of nausea and at the higher doses vomiting was seen. In the 7 days repeated dose study 2 male and 2 female dogs were given 35 mg/kg per day. However, vomiting was the major clinical sign recorded during the study.
# [10] = single oral 0.025 mg, geometric mean
# [11] = single oral 0.075 mg, geometric mean
# [12] = single oral 0.23 mg, geometric mean
# [13] = single oral 0.68 mg, geometric mean
# [14] = single oral 1.35 mg, geometric mean
# [15] = single oral 2 mg, geometric mean
structure (smiles),measurement,setting,value
"c1cnc2c(c1)C[C@@]1(CN3CCC1CC3)O2 [AZD0328, (R)-Spiro[1-azabicyclo[2.2.2]octane-3,2′(3′H)-furo[2,3-b]pyridine]]","Body temperature, PR or QRS interval","dogs [1]; any dose level, 7 or 1 day dosing",no effect
same,BP and/or HR,dogs [1]; oral gavage,increased at all doses.
same,Emesis,dogs [1]; single doses 17.3 and 34.6 mg/kg (mid and high dose groups),frequent vomiting; also recorded: severe emesis. BP and/or HR
same,Tmax,[2],0.3 to 1 h
same,Mutagenicity / genotoxicity,Ames test,not genotoxic; also recorded: not mutagenic
same,Metabolites in hepatocyte incubations,human hepatocytes,no metabolites were detected
same,NOAEL in the proarrhythmic isolated heart assay,[3],0.9 µM
same,NOAEL for proarrhythmic signals,[3]; isolated perfused rabbit heart,3 μm
same,Mutagenicity / genotoxicity,Mouse lymphoma test,not genotoxic; also recorded: not mutagenic
same,Dose up to which nicotine-like stimulus properties were lacking,rats [4],properties at doses up to 5.4 mg/kg
same,Cmax/Dose,"[5]; single oral 0.005 mg, geometric mean (% CV)",0.007 (24)
same,AUC/Dose,[5]; [10],0.053
same,CL/F,[5]; [10],19.0 L/h
same,Cmax/Dose,[5]; [10],0.006
same,AUC/Dose,[5]; [11],0.049
same,Cmax/Dose,[5]; [11],0.006
same,AUC/Dose,[5]; [12],0.061
same,Cmax/Dose,[5]; [12],0.006
same,t1/2,[5]; [12],6.7 h
same,AUC/Dose,[5]; [13],0.046
same,Cmax/Dose,[5]; [13],0.005
same,t1/2,[5]; [13],6.0 h
same,AUC/Dose,[5]; [14],0.054
same,Cmax/Dose,[5]; [14],0.005
same,AUC/Dose,[5]; [15],0.046
same,CL/F,[5]; [15],22.0 L/h
same,Cmax/Dose,[5]; [15],0.005
same,Cmax,[6],≤ 31.2 µM
same,Dose with no CV effect,"rats [7]; Wistar rat, oral gavage",1.1 mg/kg
same,Increase in blood pressure and heart rate,"rats [7]; conscious telemetered rat, oral",> 10%
same,Locomotor activity or body temperature,"rats [7]; rat, oral, any dose",μM. No effect on locomotor
same,HR increase,"rats [7]; telemetered Wistar rat, oral gavage, highest dose (total Cmax 31.2 μM)",19%
same,Target organ pathology (kidney),rats [8],vacuolation of the tubular cells
same,Dose with slight QT prolongation (ECG),dogs [9],≥ 8.6 mg/kg
